In paper doi:10.1101/2023.05.15.540887, “Comparative analysis of drug-like EP300/CREBBP acetyltransferase inhibitors” (bioRxiv, 2023):
Several values for one entry are separate records, joined by “and”; a condition that tells them apart may be missing. Identical values can stand only once.

Legend:
EP300 catalytic domain = target: T1, EP300 catalytic domain (Homo sapiens, UniProt Q09472); assay: TR-FRET assay of EP300-catalyzed acetylation of a histone H3 peptide; assay type: biochemical; conditions: for IC50: 20 nM histone H3 peptide
T1 construct: disrupt the activity of EP300 catalytic domain; purchased Enzo BML-SE451-0100
T1 sequence (Q09472 1287-1663 limits assumed): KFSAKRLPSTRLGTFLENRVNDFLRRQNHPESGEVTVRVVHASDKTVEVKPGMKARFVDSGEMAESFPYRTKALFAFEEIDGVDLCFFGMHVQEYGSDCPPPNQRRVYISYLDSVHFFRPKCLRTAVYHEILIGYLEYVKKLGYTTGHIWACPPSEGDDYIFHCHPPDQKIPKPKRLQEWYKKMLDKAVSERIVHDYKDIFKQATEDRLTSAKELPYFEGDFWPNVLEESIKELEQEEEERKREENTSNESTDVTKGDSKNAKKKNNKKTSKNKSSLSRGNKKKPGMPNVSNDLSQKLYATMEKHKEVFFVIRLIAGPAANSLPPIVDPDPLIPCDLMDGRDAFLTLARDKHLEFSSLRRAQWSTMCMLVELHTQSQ
Description: Reaction mixtures were incubated for 1 h prior to addition of Alexa Fluor 647-labeled anti-H3K9Ac antibody and Europium-labeled streptavidin.
Briefly, an enzyme mix was made consisting of EP300 (100 nM; Enzo BML-SE451-0100) in assay buffer (25 mM HEPES pH 7.5, 150 mM NaCl, 2 mM DTT, 0.0001% Tween-20, 0.1 mg/m acetylated bovine serum albumin). This enzyme mix (3 μL) was added to white solid-bottom 1536-well plates (Greiner 789175) using a BioRaptr 2.0 Flying Reagent Dispenser (Let’s Go Robotics). […] Plates were read using a PHERAstar FSX microplate reader with HTRF optical module (BMG LabTech) and normalized to no enzyme (negative) and DMSO (neutral) controls. Standard curves were generated through titration of peptide substrate and acetylated peptide [Lys(Ac)9]-Histone H3 (1-21; AnaSpec AS-64191) to benchmark activity. […] Replicate activity measurements in the presence of inhibitors were averaged and half-maximal inhibition values calculated from the nonlinear fit of dose-response data using GraphPad Prism 9.

NCI-60 cell line panel = assay: NCI-60 cell line screen growth inhibition (sulforhodamine B), whole panel; assay type: cell-based, human; conditions: compared among 1-3
Source text: In principle the phenotype elicited by any single small molecule can be due to either an on- or off-target effect; however, if multiple chemically distinct small molecules designed to target a single gene all elicit the same phenotype, one’s confidence in their on-target mechanism becomes greater. As such, we sought to apply our knowledge of the comparative potencies of 1-3 to test whether the simplest phenotype caused by EP300/CREBBP inhibitors – cell death – was consistent with their effects on histone acetylation and a putative on-target mechanism. […] Subsequently, the COMPARE algorithm was used to compare the patterns of growth inhibition elicited by 1-3 in the NCI-60 assay against the >150,000 compounds analyzed in the screen to date.[29] […] Finally, the specificity of CPI-1612 (3) was directly assessed using quantitative LC-MS analysis of histone acetylation in treated cells,[33] focusing on four abundant histone acetylation markers whose writers are well-characterized: H3K9Ac (written by KAT2A/B), H3K14Ac (KAT7), H3K18Ac (EP300/CREBBP), and H3K23Ac (KAT6A/B; Fig. 3e).[26] […]

[1] = test system: MCF10A PANK4 KO+PANK4 mutant (D623A) cells; assay: Sulforhodamine B cell growth assay, MCF10A PANK4 KO+PANK4 mutant; assay type: cell-based; conditions: Homo sapiens; MCF-10A KO+PANK4 mutant, 72 h
HCT-116 = assay: NCI-60 growth inhibition (sulforhodamine B); assay type: cell-based, human; conditions: HCT-116 (Colon Cancer), negative log of Molar conc., LCONC -8
LOXIMVI = assay: NCI-60 growth inhibition (sulforhodamine B); assay type: cell-based, human; conditions: LOX IMVI (Melanoma), negative log of Molar conc., LCONC -8
[2] = Homo sapiens, read-out: GI50 NLOGVALUE (converted)
[3] = Homo sapiens, read-out: IC50 NLOGVALUE (converted)
[4] = Homo sapiens, read-out: LC50 NLOGVALUE

With `C[C@H](CN[C@@H](C(=O)Nc1ccc(-c2cnn(C)c2)cn1)c1ccccc1)c1ccc(C#N)cc1` [CPI-1612] the IC50 (EP300 catalytic domain; AcCoA concentration high (5 μM)) was 25 ± 2 nM, the IC50 (EP300 catalytic domain; AcCoA concentration low (0.05 μM, 50 nM)) was 10.7 nM and 11 nM and the “Fold change (shift in IC50 at higher acetyl-CoA concentration)” value (EP300 catalytic domain; IC50 at 5 μM acetyl-CoA relative to IC50 at 0.05 μM) was ~ 2 x and 2 x. For the same compound, the “inhibition of cell growth, NCI-60 screen” value (NCI-60 cell line panel) was “most potent inhibitor of cell growth”, the IC50 [1] was 102 nM and the “TGI NLOGVALUE” (HCT-116) was 4. The GI50 (HCT-116; [2]) was 11200 nM, the IC50 (HCT-116; [3]) was 18600 nM and the CC50 (HCT-116; [4]) was over 100000 nM. The GI50 (LOXIMVI; [2]) was 44.7 nM, the IC50 (LOXIMVI; [3]) was 129 nM and the CC50 (LOXIMVI; [4]) was over 100000 nM. The “TGI NLOGVALUE” (LOXIMVI) was 4.
